Results as given in ChEMBL document CHEMBL6177992, “A First-in-Class Hepatocyte Nuclear Factor 4 Agonist” (J Med Chem, 2025).

Columns and labels:
[1] = biological target: T1, Nuclear receptor subfamily 1 group I member 2 (Homo sapiens, UniProt O75469); experiment: Agonist activity at human Gal4-PXR-LBD expressed in HEK293T cells transfected with pFR-Luc/pRLSV40 assessed as relative luminescence at 1 uM measured after 14 to 16 hrs by hybrid reporter gene assay; assay type: cell-based; details: time 14-16 hrs
T1 sequence (O75469 whole entry): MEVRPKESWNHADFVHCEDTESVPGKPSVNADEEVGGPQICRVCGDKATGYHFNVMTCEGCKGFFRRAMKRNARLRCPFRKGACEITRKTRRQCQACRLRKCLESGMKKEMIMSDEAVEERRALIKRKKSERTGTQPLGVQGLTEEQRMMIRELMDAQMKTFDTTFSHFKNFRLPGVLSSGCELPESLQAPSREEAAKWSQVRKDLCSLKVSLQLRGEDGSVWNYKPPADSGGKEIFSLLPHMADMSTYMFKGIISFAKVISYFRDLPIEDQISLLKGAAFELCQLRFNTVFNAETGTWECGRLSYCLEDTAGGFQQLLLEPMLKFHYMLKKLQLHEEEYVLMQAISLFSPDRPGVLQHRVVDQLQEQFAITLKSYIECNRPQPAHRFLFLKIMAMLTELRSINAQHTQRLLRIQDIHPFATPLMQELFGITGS

[2] = biological target: T2, CAR (nuclear receptor subfamily 1 group I member 3) (Homo sapiens, UniProt Q14994); experiment: Agonist activity at human Gal4-CARalpha-LBD expressed in HEK293T cells transfected with pFR-Luc/pRLSV40 assessed as relative luminescence at 1 uM measured after 14 to 16 hrs by hybrid reporter gene assay; assay type: cell-based; details: time 14-16 hrs, read-out: Activity
T2 sequence (Q14994 whole entry): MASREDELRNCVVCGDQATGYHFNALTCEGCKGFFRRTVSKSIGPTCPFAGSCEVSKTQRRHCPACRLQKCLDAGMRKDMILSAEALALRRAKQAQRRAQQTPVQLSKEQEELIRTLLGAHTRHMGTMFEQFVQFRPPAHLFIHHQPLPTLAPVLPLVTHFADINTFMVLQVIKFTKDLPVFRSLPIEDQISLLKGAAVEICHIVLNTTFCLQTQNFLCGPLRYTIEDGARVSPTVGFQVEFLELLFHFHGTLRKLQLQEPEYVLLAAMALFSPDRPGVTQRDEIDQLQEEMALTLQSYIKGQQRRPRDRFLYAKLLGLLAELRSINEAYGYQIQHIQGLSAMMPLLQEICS

Activity [1]: < 20%
activity at 1 µM [2]: < 20%
Structure (SMILES): Cc1ccc(C#Cc2ccc(O)c(C(=O)O)c2)c(Cl)c1
